Test results reported in patent US8729110B1, “2-thio-1,3,4-oxadiazoles derivatives as sphingosine-1 phosphate receptors modulators” (Allergan, Inc., priority 2012, dated 2014).

Target: T1, human S1P1 receptor (Homo sapiens, UniProt P21453)
T1 construct: expressed in transfected cells; membranes used
Assay: GTP γ35S binding assay for S1P1 activity
Type: biochemical
Conditions: activity potency, S1P1 receptor from GTP γ35S binding; 5 μg membrane protein; test compounds 0.08 to 5,000 nM; 30 min at 25° C.
Protocol: Compounds were synthesized and tested for S1P1 activity using the GTP γ^35S binding assay. These compounds may be assessed for their ability to activate or block activation of the human S1P1 receptor in cells stably expressing the S1P1 receptor.
GTP γ^35S binding was measured in the medium containing (mM) HEPES 25, pH 7.4, MgCl2 10, NaCl 100, dithitothreitol 0.5, digitonin 0.003%, 0.2 nM GTP γ^35S, and 5 μg membrane protein in a volume of 150 μl. Test compounds were included in the concentration range from 0.08 to 5,000 nM unless indicated otherwise. Membranes were incubated with 100 μM 5′-adenylylimmidodiphosphate for 30 min, and subsequently with 10 μM GDP for 10 min on ice. Drug solutions and membrane were mixed, and then reactions were initiated by adding GTP γ^35S and continued for 30 min at 25° C. Reaction mixtures were filtered over Whatman GF/B filters under vacuum, and washed three times with 3 mL of ice-cold buffer (HEPES 25, pH7.4, MgCl2 10 and NaCl 100). Filters were dried and mixed with scintillant, and counted for ^35S activity using a β-counter. Agonist-induced GTP γ^35S binding was obtained by subtracting that in the absence of agonist. Binding data were analyzed using a non-linear regression method. In case of antagonist assay, the reaction mixture contained 10 nM […] in the presence of test antagonist at concentrations ranging from 0.08 to 5000 nM.

T1 sequence (P21453 whole entry): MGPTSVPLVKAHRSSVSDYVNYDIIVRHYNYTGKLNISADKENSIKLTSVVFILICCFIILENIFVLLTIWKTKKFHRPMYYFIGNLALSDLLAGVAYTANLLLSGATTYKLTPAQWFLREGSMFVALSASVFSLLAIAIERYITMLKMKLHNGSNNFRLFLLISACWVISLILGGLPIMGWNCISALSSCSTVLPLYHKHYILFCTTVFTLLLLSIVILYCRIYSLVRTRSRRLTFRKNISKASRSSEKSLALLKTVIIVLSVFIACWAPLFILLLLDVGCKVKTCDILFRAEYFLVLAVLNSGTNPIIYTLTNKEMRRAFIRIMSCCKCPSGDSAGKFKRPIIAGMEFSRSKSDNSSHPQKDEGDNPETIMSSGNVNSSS

`Cc1ccc(-c2nnc(SC(C)c3ccc(CNCCCP(=O)(O)O)cc3)o2)cc1C` (centres unmarked) [(3-{[4-(1-{[5-(3,4-dimethylphenyl)-1,3,4-oxadiazol-2-yl]thio}ethyl)benzyl]amino}propyl)phosphonic acid] and `Cc1ccc(-c2nnc(SCc3ccc(CNCCCP(=O)(O)O)cc3)o2)cc1C` [(3-{[4-({[5-(3,4-dimethylphenyl)-1,3,4-oxadiazol-2-yl]thio}methyl)benzyl]amino}propyl)phosphonic acid] are within 1.5-fold of each other in EC50: 888 nM for the first, 805 nM for the second.

Going from `CCc1cc(CNCCCP(=O)(O)O)sc1-c1nnc(SC(C)c2cccc([N+](=O)[O-])c2)o1` (centres unmarked) [Compound 26, [3-({[4-ethyl-5-(5-{[1-(3-nitrophenyl)ethyl]sulfanyl}-1,3,4-oxadiazol-2-yl)thiophen-2-yl]methyl}amino)propyl]phosphonic acid] to `Cc1cc(CNCCCP(=O)(O)O)sc1-c1nnc(SC(C)c2cccc([N+](=O)[O-])c2)o1` (centres unmarked) [Compound 27, [3-({[4-methyl-5-(5-{[1-(3-nitrophenyl)ethyl]sulfanyl}-1,3,4-oxadiazol-2-yl)thiophen-2-yl]methyl}amino)propyl]phosphonic acid], the EC50 falls from 1260 nM to 200 nM (6.3-fold).

Going from `Cc1ccc(CSc2nnc(-c3ccc(CNCCCP(=O)(O)O)cc3)o2)cc1C` [Compound 10, {3-[(4-{5-[(3,4-dimethylbenzyl)thio]-1,3,4-oxadiazol-2-yl}benzyl)amino]propyl}phosphonic acid] to `O=[N+]([O-])c1cccc(CSc2nnc(-c3ccc(CNCCCP(=O)(O)O)cc3)o2)c1` [Compound 9, {3-[(4-{5-[(3-nitrobenzyl)thio]-1,3,4-oxadiazol-2-yl}benzyl)amino]propyl}phosphonic acid], the EC50 rises from 97 nM to 1810 nM (19-fold). The first is the more potent here.

Compared with `CCCC(Sc1nnc(-c2ccc(CNCCCP(=O)(O)O)cc2)o1)c1cccc(Cl)c1F` (centres unmarked) [Compound 15, (3-{[4-(5-{[1-(3-chloro-2-fluorophenyl)butyl]thio}-1,3,4-oxadiazol-2-yl)benzyl]amino}propyl)phosphonic acid], `O=P(O)(O)CCCNCc1ccc(-c2nnc(SCc3cccc(Cl)c3F)o2)cc1` [Compound 1, {3-[(4-{5-[(3-chloro-2-fluorobenzyl)thio]-1,3,4-oxadiazol-2-yl}benzyl)amino]propyl}phosphonic acid] is 470-fold higher in EC50: 1.8 nM for the first, 853 nM for the second. The first is the more potent here.

Going from `CCC(Sc1nnc(-c2ccc(CNCCCP(=O)(O)O)cc2)o1)c1cccc([N+](=O)[O-])c1` (centres unmarked) [Compound 16, (3-{[4-(5-{[1-(3-nitrophenyl)propyl]thio}-1,3,4-oxadiazol-2-yl)benzyl]amino}propyl)phosphonic acid] to `CC(Sc1nnc(-c2ccc(CNCCCP(=O)(O)O)cc2)o1)c1cccc([N+](=O)[O-])c1` (centres unmarked) [Compound 17, (3-{[4-(5-{[1-(3-nitrophenyl)ethyl]thio}-1,3,4-oxadiazol-2-yl)benzyl]amino}propyl)phosphonic acid], the EC50 rises from 40 nM to 382 nM (9.6-fold).

Compared with `CCc1cc(CNCCCP(=O)(O)O)ccc1-c1nnc(SC(C)c2cccc([N+](=O)[O-])c2)o1` (centres unmarked) [Compound 11, (3-{[3-ethyl-4-(5-{[1-(3-nitrophenyl)ethyl]thio}-1,3,4-oxadiazol-2-yl)benzyl]amino}propyl)phosphonic acid], `Cc1cc(CNCCCP(=O)(O)O)ccc1-c1nnc(SC(C)c2cccc([N+](=O)[O-])c2)o1` (centres unmarked) [Compound 6, (3-{[3-methyl-4-(5-{[1-(3-nitrophenyl)ethyl]thio}-1,3,4-oxadiazol-2-yl)benzyl]amino}propyl)phosphonic acid] is 7.7-fold higher in EC50: 30 nM for the first, 231 nM for the second. The first is the more potent here.

Compared with `CCC(Sc1nnc(-c2ccc(CNCCCP(=O)(O)O)cc2C)o1)c1cccc([N+](=O)[O-])c1` (centres unmarked) [Compound 7, (3-{[3-methyl-4-(5-{[1-(3-nitrophenyl)propyl]thio}-1,3,4-oxadiazol-2-yl)benzyl]amino}propyl)phosphonic acid], `CCCC(Sc1nnc(-c2ccc(CNCCCP(=O)(O)O)cc2)o1)c1ccccc1` (centres unmarked) [Compound 14, {3-[(4-{5-[(1-phenylbutyl)thio]-1,3,4-oxadiazol-2-yl}benzyl)amino]propyl}phosphonic acid] is 33-fold lower in EC50: 50 nM for the first, 1.5 nM for the second. The second is the more potent here.
